In patent publication US11447493B2 (Kinnate Biopharma Inc., priority 2018, dated 2022):

Key:
CDK12 wt/CycK = CDK12 wt/CycK (Homo sapiens (Human), UniProt Q9NYV4); experiment: Radiometric protein kinase assay (33PanQinase), Assay Condition A (thiol containing); assay type: biochemical; details: thiol containing (1.2 mM DTT), ATP 0.3 μM
Summary of the method: (§1)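 Recombinant human kinases assayed radiometrically (33PanQinase) with 33P-ATP incorporation into substrate, 60 min at 30° C, thiol-containing buffer, 1% DMSO final. Ten concentrations from 1×10^−04M to 3×10^−09M tested in singlicate. Residual activity normalized to no-enzyme and no-inhibitor controls; IC50 by least-squares fit.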

CDK12 = CDK12 (Homo sapiens (Human), UniProt Q9NYV4); experiment: Radiometric protein kinase assay (33PanQinase), Assay Condition B (thiol-free); assay type: biochemical; details: thiol-free (1 mM TCEP)
Chain of CDK12 (Q9NYV4 whole entry): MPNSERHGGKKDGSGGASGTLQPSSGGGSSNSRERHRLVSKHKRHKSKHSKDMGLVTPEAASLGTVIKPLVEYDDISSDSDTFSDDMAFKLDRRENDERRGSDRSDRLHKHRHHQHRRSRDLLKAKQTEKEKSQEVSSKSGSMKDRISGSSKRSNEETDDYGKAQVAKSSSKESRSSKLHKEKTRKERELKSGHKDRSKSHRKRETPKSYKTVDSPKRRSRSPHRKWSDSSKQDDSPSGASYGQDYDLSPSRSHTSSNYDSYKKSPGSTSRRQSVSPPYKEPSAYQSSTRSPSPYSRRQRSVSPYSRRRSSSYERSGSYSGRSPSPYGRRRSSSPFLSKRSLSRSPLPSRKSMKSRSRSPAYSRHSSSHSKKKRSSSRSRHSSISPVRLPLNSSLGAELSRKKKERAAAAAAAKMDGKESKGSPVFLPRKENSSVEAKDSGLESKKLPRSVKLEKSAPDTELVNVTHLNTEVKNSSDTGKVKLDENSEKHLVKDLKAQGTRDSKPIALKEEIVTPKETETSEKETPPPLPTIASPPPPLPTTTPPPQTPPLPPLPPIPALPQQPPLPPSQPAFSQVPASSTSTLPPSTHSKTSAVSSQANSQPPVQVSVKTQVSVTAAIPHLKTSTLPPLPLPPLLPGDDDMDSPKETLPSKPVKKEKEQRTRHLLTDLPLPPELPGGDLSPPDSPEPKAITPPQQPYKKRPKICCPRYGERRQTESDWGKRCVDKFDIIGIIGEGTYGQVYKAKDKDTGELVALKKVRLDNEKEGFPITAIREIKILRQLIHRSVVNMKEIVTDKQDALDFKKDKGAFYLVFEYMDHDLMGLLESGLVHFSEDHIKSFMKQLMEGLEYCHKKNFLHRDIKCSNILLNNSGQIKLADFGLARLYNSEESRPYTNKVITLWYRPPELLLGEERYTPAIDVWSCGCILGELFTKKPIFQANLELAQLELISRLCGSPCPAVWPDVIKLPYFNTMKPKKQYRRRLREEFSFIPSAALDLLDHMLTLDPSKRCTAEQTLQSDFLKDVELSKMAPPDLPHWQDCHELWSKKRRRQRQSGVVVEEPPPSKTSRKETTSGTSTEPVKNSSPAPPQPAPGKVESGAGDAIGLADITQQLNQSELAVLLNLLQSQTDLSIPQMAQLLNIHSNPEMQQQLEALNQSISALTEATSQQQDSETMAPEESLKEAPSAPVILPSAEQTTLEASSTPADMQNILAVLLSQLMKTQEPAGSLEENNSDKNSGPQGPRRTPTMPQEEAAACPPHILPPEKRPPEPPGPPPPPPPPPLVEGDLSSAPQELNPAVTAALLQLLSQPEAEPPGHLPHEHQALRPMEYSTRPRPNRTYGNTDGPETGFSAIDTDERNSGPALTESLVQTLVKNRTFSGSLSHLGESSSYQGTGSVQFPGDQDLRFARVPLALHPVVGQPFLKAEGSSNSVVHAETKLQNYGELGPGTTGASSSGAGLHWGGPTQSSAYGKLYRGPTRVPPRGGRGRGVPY
Chain of CDK12 (O75909 whole entry partner): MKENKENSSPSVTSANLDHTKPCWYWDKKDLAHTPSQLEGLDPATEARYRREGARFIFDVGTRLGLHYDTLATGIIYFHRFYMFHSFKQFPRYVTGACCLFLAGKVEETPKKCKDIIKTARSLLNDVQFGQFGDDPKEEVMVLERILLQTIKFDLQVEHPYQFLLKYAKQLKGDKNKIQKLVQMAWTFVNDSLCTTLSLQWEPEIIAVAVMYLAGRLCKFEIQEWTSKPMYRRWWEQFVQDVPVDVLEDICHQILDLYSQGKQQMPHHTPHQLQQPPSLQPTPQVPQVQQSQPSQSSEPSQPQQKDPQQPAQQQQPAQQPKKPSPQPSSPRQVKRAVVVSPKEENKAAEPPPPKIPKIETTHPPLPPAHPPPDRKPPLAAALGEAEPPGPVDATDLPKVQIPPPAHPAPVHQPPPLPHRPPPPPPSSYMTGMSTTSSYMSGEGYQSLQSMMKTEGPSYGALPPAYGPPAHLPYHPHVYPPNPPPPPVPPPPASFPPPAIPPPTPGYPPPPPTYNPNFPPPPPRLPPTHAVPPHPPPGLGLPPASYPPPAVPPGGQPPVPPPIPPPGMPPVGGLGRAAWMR
Method: The IC50 profile of compounds was determined using one protein kinase in a customized, thiol free assay. […] Prior to testing, the 1×10^−03 M stock solutions in column 2 of the master plates were subjected to a serial, semi-logarithmic dilution using 100% DMSO as a solvent. […] Column 1 and 7 were filled with 100% DMSO as controls. Subsequently, 2×10 microliter from each well of the serial diluted copy plates were aliquoted with a 96 channel pipettor into two identical sets of “compound dilution plates”. All plates were barcoded for automated identification and tracking purposes. […] All compounds were stored as powder until being solubilized in DMSO. Solubilized compounds were stored as 1×10^−02M/100% DMSO stock solutions. Prior to the assay process, 90 microliters of H2O were added to each well of a set of compound dilution plates. To minimize potential precipitation, the H2O was added to each plate only a few minutes before the transfer of the compound solutions into the assay plates. Each plate was shaken thoroughly, resulting in compound dilution plates with a final of 10% DMSO. For each assay, 5 microliters of solution from each well of the compound dilution plates/10% DMSO were transferred into the assay plate. The final volume of the assay was 50 μl. All compounds were tested at 10 final assay concentrations in the range from 1×10^−05M to 3×10^−10 M, in singlicate. The final DMSO concentration in the reaction cocktails was 1% in all cases. […] This was done so there would be no interference with the key cysteines in the proteins of interest.
For data analysis, the median value of the counts in column 1 (n=8) of each assay plate was defined as “low control”. This value reflects unspecific binding of radioactivity to the plate in the absence of a protein kinase but in the presence of the substrate. The median value of the counts in column 7 of each assay plate (n=8) was taken as the “high control”, i.e. full activity in the absence of any inhibitor. The difference between high and low control was taken as 100% activity. As part of the data evaluation the low control value from a particular plate was subtracted from the high control value as well as from all 80 “compound values” of the corresponding plate. The residual activity (in %) for each well of a particular plate was calculated by using the following formula: Res. Activity (%)=100×[(cpm of compound−low control)/(high control−low control)]
The fitting method used was a least-squares fit.

CDK2/CycA2 = CDK2/CycA2 (Homo sapiens (Human), UniProt P24941); experiment: Radiometric protein kinase assay (33PanQinase), Assay Condition A (thiol containing); assay type: biochemical; details: thiol containing (1.2 mM DTT), ATP 0.3 μM
Summary of the method: as §1

CDK7/CycH/MAT1 = CDK7/CycH/MAT1 (Homo sapiens (Human), UniProt P50613); experiment: as above; assay type: biochemical; details: thiol containing (1.2 mM DTT), ATP 3.0 μM
Chain of CDK7/CycH/MAT1 (P50613 whole entry): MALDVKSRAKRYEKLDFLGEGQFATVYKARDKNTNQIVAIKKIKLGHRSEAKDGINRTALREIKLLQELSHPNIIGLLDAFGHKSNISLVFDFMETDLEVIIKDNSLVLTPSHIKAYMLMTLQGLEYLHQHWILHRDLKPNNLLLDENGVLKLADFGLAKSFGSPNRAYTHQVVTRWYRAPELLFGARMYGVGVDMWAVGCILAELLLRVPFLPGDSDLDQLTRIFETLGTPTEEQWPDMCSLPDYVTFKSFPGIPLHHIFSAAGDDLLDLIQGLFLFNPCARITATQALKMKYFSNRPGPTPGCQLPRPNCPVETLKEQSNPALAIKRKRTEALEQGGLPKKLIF
Chain of CDK7/CycH/MAT1 (P51946 whole entry partner): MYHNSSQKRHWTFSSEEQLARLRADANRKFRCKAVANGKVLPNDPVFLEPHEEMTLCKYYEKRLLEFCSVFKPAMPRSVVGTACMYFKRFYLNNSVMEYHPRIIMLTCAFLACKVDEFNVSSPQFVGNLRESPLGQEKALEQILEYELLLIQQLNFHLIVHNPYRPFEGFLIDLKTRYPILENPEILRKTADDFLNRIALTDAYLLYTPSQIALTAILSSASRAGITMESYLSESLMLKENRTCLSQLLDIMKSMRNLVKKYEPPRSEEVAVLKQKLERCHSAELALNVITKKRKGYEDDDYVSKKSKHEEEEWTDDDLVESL
Chain of CDK7/CycH/MAT1 (P51948 whole entry partner): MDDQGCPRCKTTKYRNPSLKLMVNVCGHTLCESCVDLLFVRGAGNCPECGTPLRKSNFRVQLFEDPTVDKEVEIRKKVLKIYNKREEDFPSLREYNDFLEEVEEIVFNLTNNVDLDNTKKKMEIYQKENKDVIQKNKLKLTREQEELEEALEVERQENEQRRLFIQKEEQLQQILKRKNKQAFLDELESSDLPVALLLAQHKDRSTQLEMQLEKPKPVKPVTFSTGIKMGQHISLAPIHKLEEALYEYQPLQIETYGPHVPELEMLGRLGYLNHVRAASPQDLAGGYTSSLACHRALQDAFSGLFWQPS
Summary of the method: as §1

CDK2 = CDK2 (Homo sapiens (Human), UniProt P24941); experiment: Radiometric protein kinase assay (33PanQinase), Assay Condition B (thiol-free); assay type: biochemical; details: thiol-free (1 mM TCEP)
Method: The IC50 profile of compounds was determined using one protein kinase in a customized, thiol free assay. […] Prior to testing, the 1×10^−03 M stock solutions in column 2 of the master plates were subjected to a serial, semi-logarithmic dilution using 100% DMSO as a solvent. […] Column 1 and 7 were filled with 100% DMSO as controls. Subsequently, 2×10 microliter from each well of the serial diluted copy plates were aliquoted with a 96 channel pipettor into two identical sets of “compound dilution plates”. All plates were barcoded for automated identification and tracking purposes. […] All compounds were stored as powder until being solubilized in DMSO. Solubilized compounds were stored as 1×10^−02M/100% DMSO stock solutions. Prior to the assay process, 90 microliters of H2O were added to each well of a set of compound dilution plates. To minimize potential precipitation, the H2O was added to each plate only a few minutes before the transfer of the compound solutions into the assay plates. Each plate was shaken thoroughly, resulting in compound dilution plates with a final of 10% DMSO. For each assay, 5 microliters of solution from each well of the compound dilution plates/10% DMSO were transferred into the assay plate. The final volume of the assay was 50 μl. All compounds were tested at 10 final assay concentrations in the range from 1×10^−05M to 3×10^−10 M, in singlicate. The final DMSO concentration in the reaction cocktails was 1% in all cases. […]
For data analysis, the median value of the counts in column 1 (n=8) of each assay plate was defined as “low control”. This value reflects unspecific binding of radioactivity to the plate in the absence of a protein kinase but in the presence of the substrate. […] The residual activity (in %) for each well of a particular plate was calculated by using the following formula: Res. Activity (%)=100×[(cpm of compound−low control)/(high control−low control)]
The residual activities for each concentration and the compound IC50 values were calculated using Quattro Workflow V3.1.1 (Quattro Research GmbH, Munich, Germany; www.quattro-research.com). […]

[1] = test system: panel of 1,151 cancer cell lines; details: in 52% of a panel of 1,151 cancer cell lines (Kwiatkowski, 2014); cited from earlier work

Chain of CDK12 wt/CycK (Q9NYV4 whole entry): as the sequence (Q9NYV4 whole entry) above
Chain of CDK12 wt/CycK (O75909 whole entry partner): as the sequence (O75909 whole entry partner) above

Row | IC50 (CDK12 wt/CycK) | IC50 (CDK12) | IC50 (CDK2) | Structure (SMILES) | IC50 (CDK2/CycA2) | IC50 (CDK7/CycH/MAT1) | IC50 [1]
1 | ≤ 100 nM | < 100 nM | – | C=CC(=O)Nc1ccc(C(=O)N2CC[C@@H](Nc3ncc4ccccc4n3)C2)cc1 [Example 26, (R)-N-(4-(3-(quinazolin-2-ylamino)pyrrolidine-1-carbonyl)phenyl)acrylamide] | – | – | –
2 | ≤ 100 nM | < 100 nM | – | C=CC(=O)Nc1ccc(C(=O)N2CC[C@@H](Nc3ncc4cc(F)ccc4n3)C2)cc1 [Example 28, (R)-N-(4-(3-((6-fluoroquinazolin-2-yl)amino)pyrrolidine-1-carbonyl)phenyl)acrylamide] | – | – | –
3 | ≤ 100 nM | < 100 nM | – | C=CC(=O)Nc1ccc(C(=O)N2CC[C@@H](Nc3ncc4ccc(S(C)(=O)=O)cc4n3)C2)cc1 [Example 33, (R)-N-(4-(3-((7-(methylsulfonyl)quinazolin-2-yl)amino)pyrrolidine-1-carbonyl)phenyl)acrylamide] | – | – | –
4 | ≤ 100 nM | < 100 nM | – | C=CC(=O)Nc1ccc(C(=O)N2CC[C@@H](Nc3ncc4ccc(OC)cc4n3)C2)cc1 [Example 34, (R)-N-(4-(3-((7-methoxyquinazolin-2-yl)amino)pyrrolidine-1-carbonyl)phenyl)acrylamide] | – | – | –
5 | ≤ 100 nM | < 100 nM | – | C=CC(=O)Nc1ccc(C(=O)N2CC[C@@H](Nc3ncc4ccc(C#N)cc4n3)C2)cc1 [Example 37, (R)—N-(4-(3-((7-cyanoquinazolin-2-yl)amino)pyrrolidine-1-carbonyl)phenyl)acrylamide] | – | – | –
6 | ≤ 100 nM | < 100 nM | – | C=CC(=O)Nc1ccc(C(=O)N2CC[C@@H](Nc3ncc4ccc(=O)n(C(C)C)c4n3)C2)cc1 [Example 43, (R)—N-(4-(3-((8-isopropyl-7-oxo-7,8-dihydropyrido[2,3-d]pyrimidin-2-yl)amino)pyrrolidine-1-carbonyl)phenyl)acrylamide] | – | – | –
7 | 100 to 1000 nM | 100 to 1000 nM | – | CCC(=O)Nc1ccc(C(=O)N2CC[C@@H](Nc3ncc4ccccc4n3)C2)cc1 [Example 44, (R)—N-(4-(3-(quinazolin-2-ylamino)pyrrolidine-1-carbonyl)phenyl)propionamide] | – | – | –
8 | ≤ 100 nM | < 100 nM | – | C=CC(=O)Nc1ccc(C(=O)N2CC[C@@H](Nc3ncc4ccccc4n3)C2)cc1F [Example 62, (R)—N-(2-fluoro-4-(3-(quinazolin-2-ylamino)pyrrolidine-1-carbonyl)phenyl)acrylamide] | – | – | –
9 | – | – | 1000 to 10000 nM | C=CC(=O)N(C)c1ccc(C(=O)N2CC[C@@H](Nc3ncc4ccccc4n3)C2)cc1 [Example 74, (R)—N-methyl-N-(4-(3-(quinazolin-2-ylamino)pyrrolidine-1-carbonyl)phenyl)acrylamide] | 1000 to 10000 nM | – | –
10 | ≤ 100 nM | < 100 nM | 1000 to 10000 nM | C=CC(=O)Nc1ccc(C(=O)N2CC[C@@H](Nc3ncc4ccccc4n3)C2)cc1Cl [Example 88, (R)—N-(2-chloro-4-(3-(quinazolin-2-ylamino)pyrrolidine-1-carbonyl)phenyl)acrylamide] | 1000 to 10000 nM | – | –
11 | 100 to 1000 nM | – | – | C=CS(=O)(=O)Nc1ccc(C(=O)N2CC[C@@H](Nc3ncc4ccccc4n3)C2)cc1 [Example 95, (R)—N-(4-(3-(quinazolin-2-ylamino)pyrrolidine-1-carbonyl)phenyl)ethenesulfonamide] | 1000 to 10000 nM | 100 to 1000 nM | –
12 | 1000 to 10000 nM | – | – | C=CC(=O)Nc1ccc(C(=O)N2C[C@H](Nc3ncc4ccccc4n3)[C@@H](C)C2)cc1 [Example 96, N-(4-((3S,4R)-3-methyl-4-(quinazolin-2-ylamino)pyrrolidine-1-carbonyl)phenyl)acrylamide] | 30000 to 100000 nM | 10000 to 30000 nM | –
13 | – | – | – | CN(C)C/C=C/C(=O)Nc1ccc(C(=O)Nc2cccc(Nc3ncc(Cl)c(-c4c[nH]c5ccccc45)n3)c2)cc1 [THZ1] | – | – | < 200 nM

Row | Structure (SMILES) | IC50 (CDK12 wt/CycK) | IC50 (CDK12) | IC50 (CDK2) | IC50 (CDK2/CycA2) | IC50 (CDK7/CycH/MAT1) | IC50 [1]
14 | C=CC(=O)Nc1ccc(C(=O)N2CC[C@@H](Nc3ncc4ccccc4n3)C2)cc1C [Example 72, (R)—N-(2-methyl-4-(3-(quinazolin-2-ylamino)pyrrolidine-1-carbonyl)phenyl)acrylamide] | ≤ 100 nM | < 100 nM | 1000 to 10000 nM | 1000 to 10000 nM | 1000 to 10000 nM | –
15 | C=CC(=O)Nc1ccc(C(=O)N2CC[C@@H](Nc3ncc4cc(F)ccc4n3)C2)cc1C [Example 92, (R)—N-(4-(3-((6-fluoroquinazolin-2-yl)amino)pyrrolidine-1-carbonyl)-2-methylphenyl)acrylamide] | ≤ 100 nM | – | – | 1000 to 10000 nM | 1000 to 10000 nM | –
16 | C=CC(=O)Nc1ccc(C(=O)N2CC[C@@H](Nc3ncc4ccc(S(C)(=O)=O)cc4n3)C2)cc1C [Example 93, (R)—N-(2-methyl-4-(3-((7-(methylsulfonyl)quinazolin-2-yl)amino)pyrrolidine-1-carbonyl)phenyl)acrylamide] | ≤ 100 nM | – | – | 100 to 1000 nM | 1000 to 10000 nM | –
17 | C=C(CC)C(=O)Nc1ccc(C(=O)N2CC[C@@H](Nc3ncc4ccccc4n3)C2)cc1 [Example 94, (R)-2-methylene-N-(4-(3-(quinazolin-2-ylamino)pyrrolidine-1-carbonyl)phenyl)butanamide] | 100 to 1000 nM | – | – | 1000 to 10000 nM | 1000 to 10000 nM | –
